Experimental data published in patent publication US7172867B2, “Methods of testing for allergic diseases, and therapeutic agents for treating same” (priority 2002, dated 2007).
Entries after “also recorded” stand apart in the source; their conditions may differ. Where two headings read alike, the source gives them in different places.

B1: IL-4: cytokine used for eosinophil activation (protein, UniProt P05112 25-153, looked up)
Interleukin-4: HKCDITLQEIIKTLNSLTEQKTLCTELTVTDIFAASKNTTEKETFCRAATVLRQFYSHHEKDTRCLGATAQQFHRHKQLIRFLKRLDRNLWGLAGLNSCPVKEANQSTLENFLERLKTIMREKYSKCSS

What was measured:
TINUR (Nurr1) [1] = biological target: T1, TINUR (Nurr1) (Homo sapiens, UniProt P43354); assay: Mammalian two hybrid luciferase reporter system for TINUR ligand search (GAL4-TINUR LBD or full length, NIH3T3 cells, with or without RXRα); type: cell-based; details: for Nurr1 LBD-ligand activity RXR(+): TINUR LBD fused to GAL4, RXRα added, NIH3T3 luciferase, ◯ with concentration, X
T1 construct: expressed in transfected cells; host or cells: NIH3T3
Experimental: (§1) A TR3 or TINUR ligand-binding site is inserted into X, and the full-length retinoic acid X receptor (RXR) α gene is inserted into Y. These constructs are transfected into NIH3T3 cells, and the activity of induced luciferase is measured.
A plasmid comprising the TINUR ligand binding domain sequence inserted into pBIND, and a luciferase reporter plasmid comprising a GAL4 binding site, were co-transfected into NIH3T3 cells. Luciferase activity was measured automatically. At the same time, activity measurement was also carried out by adding retinoic acid X receptor (RXR) α-gene, a transcription factor that forms a heterodimer with TINUR. Low molecular weight substances can also be added to this system to screen using transcriptional enhancement activity.
Like TR3 expression, TINUR expression is enhanced in activated eosinophils. Ligands existing in vivo may exist in sites where nuclear receptors are highly expressed. […] Ligands of the nuclear receptor subfamily are assumed to have structural redundancy. Therefore, derivatives similar to TR3 activator compounds were added, and enhancement of transcriptional activity was investigated.
(§2) Thus, it was implied that prostaglandin A2 functions by acting on the LBD region of the nuclear receptor.
Target sequence in this assay (P43354 360-598): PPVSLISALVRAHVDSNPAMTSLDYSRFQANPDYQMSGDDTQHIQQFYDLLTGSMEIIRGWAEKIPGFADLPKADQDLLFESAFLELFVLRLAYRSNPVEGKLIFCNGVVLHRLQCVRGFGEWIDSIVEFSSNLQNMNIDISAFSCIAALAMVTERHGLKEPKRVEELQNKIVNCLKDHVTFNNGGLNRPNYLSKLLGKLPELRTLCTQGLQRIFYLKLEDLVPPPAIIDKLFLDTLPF

TR3 (Nur77) [2] = biological target: T2, TR3 (Nur77) (Homo sapiens, UniProt P22736); assay: Mammalian two hybrid luciferase reporter system for TR3 ligand search (GAL4-TR3 LBD or full length, NIH3T3 cells, with or without RXRα); type: cell-based; details: for Nur77 LBD-ligand activity RXR(+): TR3 LBD fused to GAL4, RXRα added, NIH3T3 luciferase, ◯ with concentration, X
T2 construct: expressed in transfected cells; host or cells: NIH3T3
Experimental: as §1
This was done to facilitate expression of a protein in which the DNA binding domains of TR3 and GAL4 were fused in frame. A plasmid comprising the TR3 ligand binding domain sequence inserted into pBIND, and a luciferase reporter plasmid comprising a GAL4 binding site, were co-transfected into NIH3T3 cells. Luciferase activity was measured automatically. At this time, activity was also measured by adding a retinoic acid X receptor (RXR) α-gene, which is a transcription factor that forms a heterodimer with TR3. By further adding low molecular weight substances to this system, transcriptional enhancement activity can also be used for screening.
TR3 expression is enhanced in activated eosinophils, such as in the peripheral blood of atopic dermatitis patients. Ligands existing in vivo may exist in sites where nuclear receptors are highly expressed. Therefore, small molecule lipid-soluble mediators considered to be produced under such conditions were added to the assay system, and evaluated based on their ability to enhance luciferase activity. […] In this manner, the method established by the present inventors paved the way for the high throughput discovery of native and synthetic TR3 ligands.
as §2

TINUR (Nurr1) [3] = biological target: T1, TINUR (Nurr1); assay: Mammalian two hybrid luciferase reporter system for TINUR ligand search (GAL4-TINUR LBD or full length, NIH3T3 cells, with or without RXRα); type: cell-based; details: NIH3T3 luciferase, ◯ with concentration, X; for Full length Nurr1-ligand activity RXR(+): full length TINUR fused to GAL4, RXRα added; for Full length Nurr1-ligand activity RXR(−): full length TINUR fused to GAL4, without RXRα
Target sequence in this assay (P43354 whole entry, the tested form may be a part): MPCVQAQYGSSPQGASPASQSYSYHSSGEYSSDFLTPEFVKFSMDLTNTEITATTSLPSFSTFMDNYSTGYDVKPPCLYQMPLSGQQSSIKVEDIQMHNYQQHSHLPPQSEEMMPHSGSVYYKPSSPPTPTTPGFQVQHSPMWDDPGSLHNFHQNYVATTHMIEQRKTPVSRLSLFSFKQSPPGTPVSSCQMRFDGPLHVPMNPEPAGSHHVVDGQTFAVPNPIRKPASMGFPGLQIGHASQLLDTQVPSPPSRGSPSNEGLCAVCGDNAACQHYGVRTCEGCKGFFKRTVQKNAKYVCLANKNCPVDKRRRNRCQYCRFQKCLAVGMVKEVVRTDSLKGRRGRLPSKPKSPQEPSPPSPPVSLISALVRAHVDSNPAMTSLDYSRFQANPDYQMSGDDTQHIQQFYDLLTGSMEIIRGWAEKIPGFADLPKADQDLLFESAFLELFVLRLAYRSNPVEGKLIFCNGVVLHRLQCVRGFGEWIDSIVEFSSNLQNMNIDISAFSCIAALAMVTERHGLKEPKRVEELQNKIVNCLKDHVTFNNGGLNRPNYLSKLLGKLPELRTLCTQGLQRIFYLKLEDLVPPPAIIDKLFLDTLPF

TR3 (Nur77) [4] = biological target: T2, TR3 (Nur77); assay: Mammalian two hybrid luciferase reporter system for TR3 ligand search (GAL4-TR3 LBD or full length, NIH3T3 cells, with or without RXRα); type: cell-based; details: for Full length Nur77-ligand activity RXR(+): full length TR3 fused to GAL4, RXRα added; for Full length Nur77-ligand activity RXR(+) / Full length Nur77-ligand activity RXR(−): NIH3T3 luciferase, ◯ with concentration, X; for Full length Nur77-ligand activity RXR(−): full length TR3 fused to GAL4, without RXRα
TR3 LBD = biological target: T3, TR3 LBD (Homo sapiens, UniProt P22736); assay: Binding to TR3 GST-LBD by BIAcor S51; details: BIAcor S51, comparison with GST as a base
T3 construct: TR3 GST-LBD and TINUR GST-LBD were respectively expressed in E. coli, and then purified; made in house; host or cells: E. coli
Text: In the present invention, a biosensor utilizing the phenomenon of surface plasmon resonance may also be used to detect or measure the bound compound. […] Therefore, biosensors such as BIACORE can be used to evaluate binding between the TR3 or TINUR protein and a test compound.

TINUR LBD = biological target: T4, TINUR LBD (Homo sapiens, UniProt P43354); assay: Binding to TINUR GST-LBD by BIAcor S51; details: BIAcor S51, comparison with GST as a base
T4 construct: TR3 GST-LBD and TINUR GST-LBD were respectively expressed in E. coli, and then purified; made in house; host or cells: E. coli

TINUR (Nurr1) [5] = assay: Mammalian two hybrid luciferase reporter system for TINUR ligand search (GAL4-TINUR LBD or full length, NIH3T3 cells, with or without RXRα); type: cell-based, human; details: LBD deletion mutant (ΔLBD)
[6] = system: TR3 expression in peripheral blood eosinophils; assay: TR3 expression induction in cultured peripheral blood eosinophils; type: cell-based, human; details: cultured peripheral blood eosinophils from healthy subjects, one to three-hour treatment

T3 sequence (P22736 360-595 limits assumed): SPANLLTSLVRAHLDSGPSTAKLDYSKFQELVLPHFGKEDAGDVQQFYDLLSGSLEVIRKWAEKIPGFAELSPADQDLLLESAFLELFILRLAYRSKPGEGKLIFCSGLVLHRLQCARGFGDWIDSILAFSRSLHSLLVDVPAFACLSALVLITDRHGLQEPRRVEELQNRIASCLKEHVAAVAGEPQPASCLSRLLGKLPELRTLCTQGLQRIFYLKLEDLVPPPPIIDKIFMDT
T4 sequence (P43354 360-595 limits assumed): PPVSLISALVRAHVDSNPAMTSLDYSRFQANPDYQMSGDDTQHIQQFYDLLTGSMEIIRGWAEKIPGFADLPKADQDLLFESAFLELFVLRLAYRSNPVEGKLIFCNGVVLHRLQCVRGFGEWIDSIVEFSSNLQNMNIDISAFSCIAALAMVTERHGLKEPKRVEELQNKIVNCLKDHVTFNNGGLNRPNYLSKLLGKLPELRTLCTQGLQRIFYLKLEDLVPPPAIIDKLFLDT

Molecule | activity of activating TINUR transcription (luciferase reporter), in words (TINUR (Nurr1) [1]) | Nurr1 LBD-ligand activity RXR(+) (TINUR (Nurr1) [1]) | activity of enhancing the transcription-activating ability of TR3 (luciferase reporter), in words (TR3 (Nur77) [2]) | Nur77 LBD-ligand activity RXR(+) (TR3 (Nur77) [2]) | Full length Nurr1-ligand activity RXR(+) (TINUR (Nurr1) [3]) | Full length Nur77-ligand activity RXR(+) (TR3 (Nur77) [4]) | Full length Nur77-ligand activity RXR(−) (TR3 (Nur77) [4]) | activity of activating TINUR transcription (luciferase reporter), in words (TINUR (Nurr1) [1]; listed as 15-deoxy-delta 12,14-prostaglandin J2) | Full length Nurr1-ligand activity RXR(−) (TINUR (Nurr1) [3]) | binding to the LBD of TR3 (TR3 LBD) | binding to the LBD of TINUR (TINUR LBD) | transcriptional activity with TINUR gene completely lacking an LBD region (TINUR (Nurr1) [5]) | transcriptional activity with TR3 gene completely lacking an LBD region (TR3 (Nur77) [4]; LBD deletion mutant (ΔLBD)) | TR3 induction [6]
CCCCC[C@H](O)/C=C/[C@H]1C=CC(=O)[C@H]1CCCCCCC(=O)O [8-isoProstaglandin A1] | ligand activators; also recorded: found to comprise the activity of activating TINUR transcription | ◯10 μM | ligand activators for TR3 | ◯10 μM | ◯10 μM | ◯ 3 μM |  |  |  |  |  |  |  | 
CCCCC[C@@](C)(O)/C=C/[C@H]1C=CC(=O)[C@@H]1C/C=C\CCCC(=O)O [15(R)-15-methylProstaglandin A2] | ligand activators; also recorded: found to comprise the activity of activating TINUR transcription | ◯10 μM | ligand activators for TR3; also recorded: the activity of enhancing the transcription-activating ability of TR3 was found | ◯10 μM | ◯10 μM | ◯10 μM | ◯10 μM |  |  |  |  |  |  | 
CCCCC/C=C/C=C1/C=CC(=O)[C@@H]1CCCCCCC(=O)O [15-deoxy-Δ^12.14_Prostaglandin A1] |  |  | ligand activators for TR3 | ◯30 μM |  | ◯30 μM |  |  |  |  |  |  |  | 
CCCCC/C=C/C=C1/C(=O)C=C[C@@H]1C/C=C\CCCC(=O)O [15-deoxy-Δ^12.14_Prostaglandin J2] |  | ◯10 μM | ligand activators for TR3 |  |  | ◯10 μM | ◯10 μM | ligand activators; also recorded: found to comprise the activity of activating TINUR transcription |  |  |  |  |  | 
CCCCC[C@@H](O)/C=C/[C@H]1C=CC(=O)[C@@H]1CCCCCCC(=O)O [15-epiProstaglandin A1] | ligand activators; also recorded: found to comprise the activity of activating TINUR transcription | ◯10 μM | ligand activators for TR3; also recorded: the activity of enhancing the transcription-activating ability of TR3 was found | ◯10 μM |  | ◯10 μM | ◯10 μM |  |  |  |  |  |  | 
O=C(O)CCC/C=C\C[C@H]1C(=O)C=C[C@@H]1/C=C/[C@@H](O)COc1ccccc1 [16-phenoxytetranorProstaglandin A2] | ligand activators; also recorded: found to comprise the activity of activating TINUR transcription | ◯10 μM | ligand activators for TR3 |  | ◯30 μM |  | ◯30 μM |  | ◯30 μM |  |  |  |  | 
O=C(O)CCC/C=C\C[C@H]1C(=O)C=C[C@@H]1/C=C/[C@@H](O)CCc1ccccc1 [17-phenyl trinorProstaglandin A2] | ligand activators; also recorded: found to comprise the activity of activating TINUR transcription | ◯10 μM | ligand activators for TR3 | ◯10 μM | ◯10 μM | ◯10 μM |  |  |  |  |  |  |  | 
CCCCC[C@H](O)/C=C/[C@H]1C=CC(=O)[C@@H]1CCCCCCC(=O)O [Prostaglandin A1] | ligand activators; also recorded: found to comprise the activity of activating TINUR transcription | ◯10 μM | ligand activators for TR3; also recorded: the activity of enhancing the transcription-activating ability of TR3 was found | ◯10 μM | ◯10 μM | ◯10 μM | ◯10 μM |  | ◯10 μM | detected | detected |  |  | 
CCCCC[C@H](O)/C=C/[C@H]1C=CC(=O)[C@@H]1C/C=C\CCCC(=O)O [Prostaglandin A2] | ligand activators; also recorded: found to comprise the activity of activating TINUR transcription | ◯10 μM | ligand activators for TR3; also recorded: the activity of enhancing the transcription-activating ability of TR3 was found | ◯10 μM | ◯10 μM | ◯10 μM | ◯10 μM |  | ◯10 μM | detected | detected | suppressed | suppressed | 
CCCCC[C@H](O)C/C=C1/C(=O)C=C[C@@H]1C/C=C\CCCC(=O)O [Δ12-Prostaglandin J2] |  |  | the activity of enhancing the transcription-activating ability of TR3 was found |  |  |  |  |  |  |  |  |  |  | 
IL-5: cytokine used for eosinophil activation |  |  |  |  |  |  |  |  |  |  |  |  |  | did not lead to TR3 induction
B1 |  |  |  |  |  |  |  |  |  |  |  |  |  | did not lead to TR3 induction
